Conditions: exposure to liquid water under ambient conditions
From the text: The relative hydrophobicity and hydrophilicity of the R groups can be easily adjusted to tailor the hydrolysis rate upon exposure to aqueous medium, and therefore the release rate of the active R*OH.

Row | hydrolysis rate | Structure (SMILES)
1 | hydrolyzed rapidly | CC1CCC(C(C)C)C(OC(=O)c2ccc[n+](C)c2)C1.[Cl-] (centres unmarked)
2 | hydrolyzed rapidly | Cc1ccc(C(C)C)c(OC(=O)c2ccc[n+](C)c2)c1.[Cl-]

Source: US9119780B2, “Triggerable compositions for two-stage, controlled release of proactive chemistry” (Kimberly-Clark Worldwide, Inc., priority 2013, dated 2015)
